The target in experiment [1] is Protein kinase C beta type (Homo sapiens) (UniProt P05771). In words: Inhibition of Protein Kinase C beta at 10 uM Histone H1 substrate (Inactive).
Experiment [2] has as its target Protein kinase C alpha type (Homo sapiens) (UniProt P17252). Put plainly: Inhibition of Protein kinase C alpha at 10 uM Histone H1 substrate.
Experiment [3] deals with Tyrosine-protein kinase Fyn (Homo sapiens) (UniProt P06241). In words: Inhibition of Fyn protein kinase at 10 uM.
The nature of experiment [4]: Inhibition of cAMP-dependent protein kinase at 10 uM Histone H1 substrate.
The target in experiment [5] is Protein kinase C gamma type (Homo sapiens) (UniProt P05129). In words: Inhibition of Protein Kinase C gamma at 10 uM Histone H1 substrate.
The target in experiment [6] is Epidermal growth factor receptor (Homo sapiens) (UniProt P00533). The following applies: 10 uM.
Description: Inhibition of Epidermal growth factor receptor at 10 uM
Experiment [7] concerns the target T1, Tyrosine-protein kinase Lck (Homo sapiens, UniProt P06239). In words: Inhibition of p56 lck autophosphorylation, gamma-[33P]ATP incorporation.
Target sequence in this assay (P06239 whole entry): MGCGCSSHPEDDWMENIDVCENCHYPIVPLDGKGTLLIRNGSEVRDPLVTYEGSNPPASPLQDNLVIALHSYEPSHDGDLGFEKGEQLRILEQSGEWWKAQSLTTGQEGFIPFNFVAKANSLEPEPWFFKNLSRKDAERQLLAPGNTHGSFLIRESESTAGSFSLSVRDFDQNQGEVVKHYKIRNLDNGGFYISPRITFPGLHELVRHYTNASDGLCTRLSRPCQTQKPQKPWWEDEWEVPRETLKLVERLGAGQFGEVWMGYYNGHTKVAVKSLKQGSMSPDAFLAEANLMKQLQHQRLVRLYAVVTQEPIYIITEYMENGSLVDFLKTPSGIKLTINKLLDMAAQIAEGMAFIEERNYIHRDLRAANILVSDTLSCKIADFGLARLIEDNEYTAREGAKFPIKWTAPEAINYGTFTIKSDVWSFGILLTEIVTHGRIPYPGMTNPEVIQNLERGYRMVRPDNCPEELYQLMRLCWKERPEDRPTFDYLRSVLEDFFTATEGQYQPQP
Experiment [8] has as its target Receptor tyrosine-protein kinase erbB-2 (Homo sapiens) (UniProt P04626). Put plainly: Inhibition of Her2, ErbB2 receptor tyrosine kinase at 10 uM.
The target in experiment [9] is T1, Tyrosine-protein kinase Lck. In words: Inhibition of Lck protein kinase at 10 uM.
Target sequence in this assay (P06239 2-509 limits assumed): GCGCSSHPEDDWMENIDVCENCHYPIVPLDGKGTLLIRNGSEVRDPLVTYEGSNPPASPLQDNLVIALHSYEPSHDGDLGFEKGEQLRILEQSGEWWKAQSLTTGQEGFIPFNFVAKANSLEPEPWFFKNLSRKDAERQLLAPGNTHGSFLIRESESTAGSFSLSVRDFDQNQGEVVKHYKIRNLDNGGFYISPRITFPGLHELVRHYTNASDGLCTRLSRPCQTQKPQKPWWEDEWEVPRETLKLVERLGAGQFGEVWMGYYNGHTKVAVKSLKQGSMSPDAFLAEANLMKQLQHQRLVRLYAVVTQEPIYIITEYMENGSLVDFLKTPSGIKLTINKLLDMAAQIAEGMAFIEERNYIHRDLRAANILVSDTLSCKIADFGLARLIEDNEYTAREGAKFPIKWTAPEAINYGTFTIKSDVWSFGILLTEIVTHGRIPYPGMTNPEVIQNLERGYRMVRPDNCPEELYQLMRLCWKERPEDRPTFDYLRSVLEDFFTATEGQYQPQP
The target in experiment [10] is T2, Tyrosine-protein kinase SYK (Homo sapiens, UniProt P43405). Put plainly: Inhibition of p72 syk autophosphorylation.
The target in experiment [11] is T3, CaM kinase II (Homo sapiens) (UniProt Q13557+Q13555+Q13554+Q9UQM7). In words: (§1) Inhibition of [Ca(2+)]/Calmodulin-dependent Type II protein kinase at 10 uM. The class given is protein assay.
For experiment [12], the target named is T4, Tyrosine-protein kinase Blk (Homo sapiens, UniProt P51451). Put plainly: (§2) Inhibition of p74 Blk tyrosine kinase autophosphorylation (Inactive).
The test system of experiment [13] is M109. In words: Cytotoxic effect on M109 mouse lung carcinoma cells at 40 uM (No effect). The class given is functional, cell-based.
Experiment [14] concerns the target T3, CaM kinase II (Homo sapiens). Described as §1. The class given is protein assay. This is another data set of the same source.
Experiment [15] concerns the target T1, Tyrosine-protein kinase Lck. In words: Inhibition of p56 lck autophosphorylation, gamma-[33P]ATP incorporation (Inactive).
Target sequence in this assay (P06239 whole entry): as the sequence (P06239 whole entry) above
The target in experiment [16] is T4, Tyrosine-protein kinase Blk. The experiment is described as §2. The source holds these as a separate data set.
In experiment [17] the target is T2, Tyrosine-protein kinase SYK. In words: Inhibition of p72 syk autophosphorylation (Inactive).

Activity calls are given as the source filed them. The calls are words filed in the database; no cut-off is given here.

Chain of Protein kinase C beta type (Homo sapiens) (P05771 2-671 limits assumed): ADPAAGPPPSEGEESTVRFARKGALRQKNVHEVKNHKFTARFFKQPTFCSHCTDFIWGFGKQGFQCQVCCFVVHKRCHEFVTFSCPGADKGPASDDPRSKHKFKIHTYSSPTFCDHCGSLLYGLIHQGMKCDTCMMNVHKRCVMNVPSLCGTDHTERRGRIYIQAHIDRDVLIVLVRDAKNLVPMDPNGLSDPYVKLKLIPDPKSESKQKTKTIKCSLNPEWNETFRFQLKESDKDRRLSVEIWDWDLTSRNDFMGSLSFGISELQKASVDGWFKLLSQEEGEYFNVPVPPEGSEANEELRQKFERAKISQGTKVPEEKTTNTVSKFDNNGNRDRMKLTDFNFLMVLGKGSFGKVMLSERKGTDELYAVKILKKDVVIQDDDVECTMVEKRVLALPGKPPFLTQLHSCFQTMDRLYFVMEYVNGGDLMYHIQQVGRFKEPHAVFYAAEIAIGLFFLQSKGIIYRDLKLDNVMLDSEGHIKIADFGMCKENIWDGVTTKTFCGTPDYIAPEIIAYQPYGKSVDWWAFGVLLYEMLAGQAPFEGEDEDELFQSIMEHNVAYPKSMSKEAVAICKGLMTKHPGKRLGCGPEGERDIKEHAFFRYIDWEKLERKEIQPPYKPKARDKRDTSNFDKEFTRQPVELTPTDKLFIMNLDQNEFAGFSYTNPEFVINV
Chain of Epidermal growth factor receptor (Homo sapiens) (P00533 whole entry): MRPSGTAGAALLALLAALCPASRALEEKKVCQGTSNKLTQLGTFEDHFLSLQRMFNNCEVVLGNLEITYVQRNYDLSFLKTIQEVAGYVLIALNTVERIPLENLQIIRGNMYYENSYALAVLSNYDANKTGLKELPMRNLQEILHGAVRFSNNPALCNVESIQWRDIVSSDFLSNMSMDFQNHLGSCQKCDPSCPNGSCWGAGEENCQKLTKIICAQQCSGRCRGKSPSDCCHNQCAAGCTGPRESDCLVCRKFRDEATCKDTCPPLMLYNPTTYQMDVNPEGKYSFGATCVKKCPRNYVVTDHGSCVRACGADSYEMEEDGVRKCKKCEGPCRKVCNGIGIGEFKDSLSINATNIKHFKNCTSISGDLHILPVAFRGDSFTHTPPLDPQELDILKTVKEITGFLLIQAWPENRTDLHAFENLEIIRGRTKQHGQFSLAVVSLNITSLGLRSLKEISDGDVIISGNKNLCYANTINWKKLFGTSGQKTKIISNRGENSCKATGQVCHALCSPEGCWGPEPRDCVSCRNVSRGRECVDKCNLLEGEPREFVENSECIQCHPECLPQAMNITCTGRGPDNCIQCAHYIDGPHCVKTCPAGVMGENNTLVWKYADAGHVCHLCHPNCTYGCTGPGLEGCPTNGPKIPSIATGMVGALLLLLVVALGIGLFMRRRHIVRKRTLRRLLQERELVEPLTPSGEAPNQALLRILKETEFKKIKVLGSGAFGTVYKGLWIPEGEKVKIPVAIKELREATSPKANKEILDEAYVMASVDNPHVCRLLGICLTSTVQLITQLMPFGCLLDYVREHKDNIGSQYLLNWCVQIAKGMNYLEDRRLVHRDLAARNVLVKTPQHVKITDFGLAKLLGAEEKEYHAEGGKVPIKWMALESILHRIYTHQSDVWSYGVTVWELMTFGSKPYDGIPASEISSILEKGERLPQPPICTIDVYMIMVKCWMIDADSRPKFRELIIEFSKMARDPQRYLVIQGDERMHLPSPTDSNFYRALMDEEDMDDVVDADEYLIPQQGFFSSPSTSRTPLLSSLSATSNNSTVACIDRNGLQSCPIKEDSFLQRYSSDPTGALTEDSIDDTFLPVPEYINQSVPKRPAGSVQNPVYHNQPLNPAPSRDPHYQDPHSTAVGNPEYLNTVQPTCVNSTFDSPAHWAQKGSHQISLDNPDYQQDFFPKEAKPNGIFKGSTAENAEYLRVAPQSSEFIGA
Chain of Receptor tyrosine-protein kinase erbB-2 (Homo sapiens) (P04626 whole entry): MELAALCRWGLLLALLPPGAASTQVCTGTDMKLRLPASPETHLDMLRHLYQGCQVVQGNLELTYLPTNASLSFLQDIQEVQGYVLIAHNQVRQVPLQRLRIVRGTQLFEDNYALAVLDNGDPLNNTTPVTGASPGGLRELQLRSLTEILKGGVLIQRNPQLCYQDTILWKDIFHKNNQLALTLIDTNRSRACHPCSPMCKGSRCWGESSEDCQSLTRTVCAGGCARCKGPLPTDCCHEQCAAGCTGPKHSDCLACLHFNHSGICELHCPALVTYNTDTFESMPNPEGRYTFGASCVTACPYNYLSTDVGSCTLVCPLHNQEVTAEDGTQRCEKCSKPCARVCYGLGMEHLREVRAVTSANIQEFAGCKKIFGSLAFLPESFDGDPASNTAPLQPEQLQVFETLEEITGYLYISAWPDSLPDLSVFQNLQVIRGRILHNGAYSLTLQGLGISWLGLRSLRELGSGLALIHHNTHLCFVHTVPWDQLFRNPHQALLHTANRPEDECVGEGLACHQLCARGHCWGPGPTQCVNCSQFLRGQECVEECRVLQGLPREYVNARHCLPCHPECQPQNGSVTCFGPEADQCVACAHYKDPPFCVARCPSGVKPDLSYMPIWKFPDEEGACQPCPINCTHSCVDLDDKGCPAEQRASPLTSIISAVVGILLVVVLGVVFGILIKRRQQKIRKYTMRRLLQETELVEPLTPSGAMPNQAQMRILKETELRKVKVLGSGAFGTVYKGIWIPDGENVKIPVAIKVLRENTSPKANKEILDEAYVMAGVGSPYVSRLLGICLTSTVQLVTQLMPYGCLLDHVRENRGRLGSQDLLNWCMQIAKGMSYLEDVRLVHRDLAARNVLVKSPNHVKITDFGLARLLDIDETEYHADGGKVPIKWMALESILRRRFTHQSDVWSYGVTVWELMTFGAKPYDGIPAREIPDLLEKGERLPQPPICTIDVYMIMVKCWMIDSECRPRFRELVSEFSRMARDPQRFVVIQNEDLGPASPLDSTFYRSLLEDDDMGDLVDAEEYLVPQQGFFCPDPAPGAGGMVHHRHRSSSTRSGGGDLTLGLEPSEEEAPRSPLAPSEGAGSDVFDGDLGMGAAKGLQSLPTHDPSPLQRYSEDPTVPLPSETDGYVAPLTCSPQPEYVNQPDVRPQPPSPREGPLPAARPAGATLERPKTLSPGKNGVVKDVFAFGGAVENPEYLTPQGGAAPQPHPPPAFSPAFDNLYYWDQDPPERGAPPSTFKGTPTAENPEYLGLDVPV
Chain of Tyrosine-protein kinase Fyn (Homo sapiens) (P06241 2-537 limits assumed): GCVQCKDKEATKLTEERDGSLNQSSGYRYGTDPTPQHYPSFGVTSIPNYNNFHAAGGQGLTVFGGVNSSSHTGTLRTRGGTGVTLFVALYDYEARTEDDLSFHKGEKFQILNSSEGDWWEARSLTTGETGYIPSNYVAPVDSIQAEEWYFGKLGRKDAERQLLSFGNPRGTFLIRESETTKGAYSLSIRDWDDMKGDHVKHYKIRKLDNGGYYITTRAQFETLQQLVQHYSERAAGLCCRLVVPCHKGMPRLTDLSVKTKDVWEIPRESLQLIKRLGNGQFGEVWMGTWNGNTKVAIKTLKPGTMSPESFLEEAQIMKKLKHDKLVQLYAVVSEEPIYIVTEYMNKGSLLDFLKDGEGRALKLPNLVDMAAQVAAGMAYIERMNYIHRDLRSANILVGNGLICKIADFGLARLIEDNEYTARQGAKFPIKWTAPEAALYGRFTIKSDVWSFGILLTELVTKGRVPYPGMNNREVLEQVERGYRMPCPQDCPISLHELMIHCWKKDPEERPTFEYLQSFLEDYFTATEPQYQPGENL

Turning to `COn1cc2c3c(cccc31)[C@@H]1C=C(C)CN(C)[C@@H]1C2`, the inhibition result in [1], in experiment [2], in experiment [4], in experiment [5], in experiment [11] and in experiment [12] was “inactive” throughout. Further, in experiment [14], the inhibition result was “inactive”. In addition, the inhibition worked out at 19% in experiment [3], 14% in experiment [6], 9% in experiment [8] and 42% in experiment [9]. For the same compound, the results for the IC50 in [7] and in experiment [10] were 8.5 µM and 285 µM, respectively. In addition, the Cytotoxicity result in experiment [13] is “inactive”.

Consider `CN1C[C@H](CO)C=C2c3cccc4[nH]cc(c34)C[C@H]21`, for which the IC50 result in [15] was “Not Active”.

`CC1=C[C@@H]2c3cccc4[nH]cc(c34)C[C@H]2N(C)C1` [AGROCLAVINE]: the half-inhibitory concentration (IC50) result in experiment [15], in experiment [16] and in [17] was “Not Active” in each case.

The values are drawn from ChEMBL document CHEMBL1131644, “1-Methoxy-agroclavine from Penicillium sp. WC75209, a novel inhibitor of the Lck tyrosine kinase” (Bioorg Med Chem Lett, 1998).
